Reference: US20050101575A1, “Vitamin d3 derivatives and remedies using the same” (priority 2003, published 2005)

System: HL-60 cell
Assay: Vitamin D3 antagonist effect: suppression of HL-60 cell differentiation induced by 1α,25-dihydroxyvitamin D3 (NBT reduction activity)
Type: cell-based
Conditions: Homo sapiens, HL-60, 96 h, simultaneous treatment with 1α,25-dihydroxyvitamin D3 (1×10^−8 M); compound 1×10^−9 to 1×10^−6 M; 4 days at 37° C.; read-out: IC50 (nM), suppression of NBT reduction activity induction in HL-60 cell
Text: (1) HL-60 cell line which had been purchased from a cell bank (Japanese Cancer Research Resource Bank, Cell No: JCRB0085) was used. The cell line was stored as a frozen storage stock to prevent the change of cell characteristics attributable to successive cultivations. Prior to the initiation of experiments, the cells were defrosted and successive culturing was stared. For the experiments, cells whose successive culturing was from one month to about a half year were used. The successive culturing was carried out by centrifugally collecting cells which were in the state of suspension culture, and diluting the collected cell concentrate with a fresh culture medium at a ratio of about 1/100 (1-2×10^4 cells/ml). As the culture medium, an RPMI-1640 medium containing 10% fetal bovine serum was used.
The cells which were under successive culturing in the above process (1) were centrifugally collected, and they were dispersed in a culture medium at the cell concentration of 2×10^4 cells/ml. The dispersion was seeded into a 24-well culture schale at 1 ml/well. […] As the control, ethanol was added at 1 μl/well. After culturing at 37° C. for 4 days in the presence of 5% CO2, the cells were centrifugally collected.
(3) As the parameter of differentiation inducing effect on HL-60 cells, the induction of nitroblue tetrazonium (henceforth, NBT) reduction activity was used. The NBT reduction activity was determined according to the following procedure. That is, centrifugally collected cells were suspended in a fresh culture medium, and subsequently NBT and 12-O-tetradecanoylphorbol-13-acetate were added in such a manner that their concentrations became 0.1% and 100 ng/ml, respectively. After the mixed suspension was incubated at 37° C. for 25 min, a cytospin specimen was prepared. After air drying, it was stained with Kernechtrot, and the ratio of the positive cells of NBT reduction activity was determined under an optical microscope. Percentage ratios of the positive cell ratio in a simultaneous treatment with 1 α,25-dihydroxyvitamin D3 (1×10^−8 M) and a compound of the present invention at various treating concentrations (1×10^−9 to 1×10^−6 M) to that in a single treatment with 1 α,25-dihydroxyvitamin D3 (1×10^−8 M) were plotted against treating concentrations of the compound of the present invention, and the treating concentration of the compound of the present invention at which the percentage ratio became 50% was determined as IC50 value (nM).

Row | IC50 [nM] | SMILES
1 | 50 to 150 | C=C1CC([C@@H](C)[C@H]2CC[C@H]3/C(=C/C=C4/C[C@@H](O)C[C@H](O)C4=C)CCC[C@]23C)OC1=O (stereo partly drawn) [Compound No. 11a, 20(R)-(tetrahydro-3-vinylidene-2-furanon-5-yl)-9,10-secopregna-5(Z), 7(E), 10(19)-triene-1(S),3(R)-diol]
2 | < 50 | C=C1C[C@H](C[C@@H](C)[C@H]2CC[C@H]3/C(=C/C=C4/C[C@H](O)[C@H](C)[C@H](O)C4=C)CCC[C@]23C)OC1=O [Compound No. 22b, 2(S)-methyl-20(R)-(tetrahydro-3-vinylidene-2-furanon-5-(S)-yl)methyl-9,10-s ecopregna-5(Z),7(E), 10(19)-triene-1(S),3(S)-diol]
3 | < 50 | C=C1C[C@H](C[C@@H](C)[C@H]2CC[C@H]3/C(=C/C=C4/C[C@@H](O)[C@H](C)[C@H](O)C4=C)CCC[C@]23C)OC1=O [Compound No. 22d, 2(S)-methyl-20(R)-(tetrahydro-3-vinylidene-2-furanon-5-(S)-yl)methyl-9,10-s ecopregna-5(Z),7(E),10(19)-triene-1(S),3(R)-diol]
4 | < 50 | C=C1CC(/C=C/[C@@H](C)[C@H]2CC[C@H]3/C(=C/C=C4/C[C@@H](O)C[C@H](O)C4=C)CCC[C@]23C)OC1=O (some centres unmarked) [Compound No. 31b]
5 | < 50 | C=C1CC(/C=C/[C@@H](C)[C@H]2CC[C@H]3/C(=C/C=C4/C[C@@H](O)[C@H](C)[C@H](O)C4=C)CCC[C@]23C)OC1=O (stereo partly drawn) [Compound No. 32a, 2(S)-methyl-20(R)-(2-(tetrahydro-3-vinylidene-2-furanon-5-yl)-1(E)-ethenyl)-9,10-secopregna-5(Z), 7(E), 10(19)-triene-1(S), 3(R)-diol]
